The record followed here is PubChem BioAssay AID1745844 (Carcinogenic Potency Database (CPDB), 2022).

Molecules are shown by their SMILES. Calls of active or inactive are those of the source. No rule for the calls is given here.

The test system of this data set is rodent lifetime carcinogenesis bioassay, tumor incidence TD50. Briefly: chronic cancer bioassays in animals – CPDB, compiled studies (AID 1745844).

For the compound `Nc1ccc(N=Nc2ccc(N)cc2)cc1`, the carcinogen call is “negative (inactive)” (mouse, strain BALB/cLacDp, females, in feed, site: liver, lesion: several types, types named in the paper, dosed 60 weeks, study length 132 weeks) and “negative (inactive)” (mouse, strain BALB/cLacDp, males, in feed, site: liver, lesion: several types, types named in the paper, dosed 60 weeks, study length 132 weeks). The TD50 (mouse, strain BALB/cLacDp, females, in feed, site: lung, lesion: several types, types named in the paper, dosed 60 weeks, study length 132 weeks) is 240 mg/kg/day (inactive) and the TD50 (mouse, strain BALB/cLacDp, males, in feed, site: lung, lesion: several types, types named in the paper, dosed 60 weeks, study length 132 weeks) was 213 mg/kg/day (inactive).
As to `O=NC(=O)CCNCCO`, the TD50 (hamster, strain Syrian Golden, females, by gavage, site: liver, lesion: cholangioadenoma/carcinoma, dosed 50 weeks, study length 65 weeks) is 2.68 mg/kg/day; the TD50 (hamster, strain Syrian Golden, females, by gavage, site: liver, lesion: cholangiocarcinoma, dosed 50 weeks, study length 65 weeks) was determined as 5.58 mg/kg/day; the TD50 (hamster, strain Syrian Golden, females, by gavage, site: liver, lesion: hepatocellular adenoma, dosed 50 weeks, study length 65 weeks) was determined as 5.58 mg/kg/day; the TD50 (hamster, strain Syrian Golden, females, by gavage, site: liver, lesion: hepatocellular carcinoma/adenoma, dosed 50 weeks, study length 65 weeks) is 3.72 mg/kg/day; the TD50 (hamster, strain Syrian Golden, females, by gavage, site: liver, lesion: several types, types named in the paper, dosed 50 weeks, study length 65 weeks) is 0.997 mg/kg/day; the TD50 (hamster, strain Syrian Golden, females, by gavage, site: lung, lesion: adenoma, dosed 50 weeks, study length 65 weeks) was 31.3 mg/kg/day. The TD50 runs as follows: (hamster, strain Syrian Golden, females, by gavage, site: pancreatic duct, lesion: carcinoma, dosed 50 weeks, study length 65 weeks) 3.72 mg/kg/day; (hamster, strain Syrian Golden, females, by gavage, site: pancreatic duct, lesion: several types, types named in the paper, dosed 50 weeks, study length 65 weeks) 2.31 mg/kg/day; (rat, strain Fischer 344, females, in drinking water, site: liver, lesion: hepatocellular carcinoma, dosed 50 weeks, study length 120 weeks) 2.7 mg/kg/day; (rat, strain Fischer 344, females, in drinking water, site: liver, lesion: neoplastic nodule, dosed 50 weeks, study length 120 weeks) 2.7 mg/kg/day; (rat, strain Fischer 344, females, in drinking water, site: liver, lesion: several types, types named in the paper, dosed 50 weeks, study length 120 weeks) 1.8 mg/kg/day.
Regarding `Nc1cc([N+](=O)[O-])ccc1O`, the carcinogen call reads like this: (mouse, strain B6C3F1, females, by gavage, site: any site (literature study), lesion: several types, types named in the paper, dosed 103 weeks, study length 105 weeks) “negative (inactive)”; (rat, strain Fischer 344, females, by gavage, site: any site (literature study), lesion: several types, types named in the paper, dosed 103 weeks, study length 105 weeks) “negative (inactive)”. Moreover, the TD50 reads like this: (mouse, strain B6C3F1, females, by gavage, site: liver, lesion: hepatocellular adenoma + hepatocellular carcinoma + neoplastic nodule, dosed 103 weeks, study length 105 weeks) 2160 mg/kg/day; (mouse, strain B6C3F1, females, by gavage, site: lung, lesion: alveolar/bronchiolar adenoma + alveolar/bronchiolar carcinoma, dosed 103 weeks, study length 105 weeks) 2180 mg/kg/day; (mouse, strain B6C3F1, males, by gavage, site: abdominal cavity + liver + mesenteric lymph node + pancreas + spleen + subcutaneous tissue, lesion: hemangioma + hemangiosarcoma, dosed 103 weeks, study length 105 weeks) 798 mg/kg/day (inactive); (mouse, strain B6C3F1, males, by gavage, site: any site (literature study), lesion: several types, types named in the paper, dosed 103 weeks, study length 105 weeks) 582 mg/kg/day; (rat, strain Fischer 344, males, by gavage, site: any site (literature study), lesion: several types, types named in the paper, dosed 103 weeks, study length 105 weeks) 84.1 mg/kg/day; (rat, strain Fischer 344, males, by gavage, site: kidney cortex, lesion: adenoma, NOS, dosed 103 weeks, study length 105 weeks) 839 mg/kg/day. In addition, the TD50 by setting is: (rat, strain Fischer 344, males, by gavage, site: liver, lesion: hepatocellular adenoma + hepatocellular carcinoma + neoplastic nodule, dosed 103 weeks, study length 105 weeks) 1300 mg/kg/day; (rat, strain Fischer 344, males, by gavage, site: liver, lesion: hepatocellular carcinoma + neoplastic nodule, dosed 103 weeks, study length 105 weeks) 1300 mg/kg/day; (rat, strain Fischer 344, males, by gavage, site: subcutaneous tissue, lesion: fibroma, dosed 103 weeks, study length 105 weeks) 584 mg/kg/day; (rat, strain Fischer 344, males, by gavage, site: subcutaneous tissue, lesion: fibrosarcoma + fibroma + neurofibrosarcoma + sarcoma, NOS, dosed 103 weeks, study length 105 weeks) 458 mg/kg/day; (rat, strain Fischer 344, males, by gavage, site: testis, lesion: interstitial-cell tumor, dosed 103 weeks, study length 105 weeks) 68.2 mg/kg/day.
For `CCSC[C@H](N)C(=O)O`, the TD50 was 3630 mg/kg/day (inactive) (rat, strain Wistar, males, in feed, site: abdomen, lesion: liposarcoma, dosed 58 weeks, study length 89 weeks) and 3630 mg/kg/day (inactive) (rat, strain Wistar, males, in feed, site: any site (literature study), lesion: several types, types named in the paper, dosed 58 weeks, study length 89 weeks). The carcinogen call (rat, strain Wistar, males, in feed, site: liver, lesion: one or several types, types not named, dosed 58 weeks, study length 89 weeks) is “negative (inactive)”.
As to `C=CN1CCCC1=O`, the TD50 (rat, strain Charles River CD (Sprague-Dawley), females, inhaled, site: any site (literature study), lesion: malignant tumor, dosed 104 weeks, study length 104 weeks) turned out to be 6.12 mg/kg/day; the TD50 (rat, strain Charles River CD (Sprague-Dawley), females, inhaled, site: larynx, lesion: squamous-cell carcinoma, dosed 104 weeks, study length 104 weeks) is 120 mg/kg/day; the TD50 (rat, strain Charles River CD (Sprague-Dawley), females, inhaled, site: liver, lesion: hepatocellular carcinoma, dosed 104 weeks, study length 104 weeks) is 12.3 mg/kg/day; the TD50 (rat, strain Charles River CD (Sprague-Dawley), females, inhaled, site: nasal cavity, olfactory epithelium, lesion: adenocarcinoma, dosed 104 weeks, study length 104 weeks) was 120 mg/kg/day; the TD50 (rat, strain Charles River CD (Sprague-Dawley), females, inhaled, site: nasal cavity, respiratory epithelium, lesion: adenoma, dosed 52 weeks, study length 52 weeks) was 19.8 mg/kg/day; the TD50 (rat, strain Charles River CD (Sprague-Dawley), females, inhaled, site: nasal cavity, respiratory epithelium, lesion: adenoma, dosed 104 weeks, study length 104 weeks) is 20.4 mg/kg/day. The TD50 was 5 mg/kg/day (rat, strain Charles River CD (Sprague-Dawley), males, inhaled, site: any site (literature study), lesion: malignant tumor, dosed 104 weeks, study length 104 weeks); 1.99 mg/kg/day (rat, strain Charles River CD (Sprague-Dawley), males, inhaled, site: any site (literature study), lesion: several types, types named in the paper, dosed 104 weeks, study length 104 weeks); 84 mg/kg/day (rat, strain Charles River CD (Sprague-Dawley), males, inhaled, site: larynx, lesion: squamous-cell carcinoma, dosed 104 weeks, study length 104 weeks); 12 mg/kg/day (rat, strain Charles River CD (Sprague-Dawley), males, inhaled, site: liver, lesion: hepatocellular carcinoma, dosed 104 weeks, study length 104 weeks); 32.9 mg/kg/day (rat, strain Charles River CD (Sprague-Dawley), males, inhaled, site: nasal cavity, olfactory epithelium, lesion: adenocarcinoma, dosed 104 weeks, study length 104 weeks); 8.56 mg/kg/day (rat, strain Charles River CD (Sprague-Dawley), males, inhaled, site: nasal cavity, respiratory epithelium, lesion: adenoma, dosed 52 weeks, study length 52 weeks). Moreover, where the note is “rat, strain Charles River CD (Sprague-Dawley), males, inhaled, site: nasal cavity, respiratory epithelium, lesion: adenoma, dosed 104 weeks, study length 104 weeks”, the TD50 was 11.7 mg/kg/day.
Take `CC(=O)Nc1nc(NC(C)=O)nc(-c2ccc([N+](=O)[O-])o2)n1`: the TD50 is 12.8 mg/kg/day (rat, strain Sprague-Dawley, females, in feed, site: any site (literature study), lesion: several types, types named in the paper, dosed 46 weeks, study length 66 weeks); 29 mg/kg/day (rat, strain Sprague-Dawley, females, in feed, site: mammary gland, lesion: adenocarcinoma, dosed 46 weeks, study length 66 weeks); 14.1 mg/kg/day (rat, strain Sprague-Dawley, females, in feed, site: mammary gland, lesion: several types, types named in the paper, dosed 46 weeks, study length 66 weeks).
For `C=CCN(CC=C)N=O`, the TD50 is 1.54 mg/kg/day (hamster, strain Syrian Golden, both sexes, by gavage, site: any site (literature study), lesion: several types, types named in the paper, dosed 53 weeks, study length 59 weeks); 3.69 mg/kg/day (hamster, strain Syrian Golden, both sexes, by gavage, site: larynx, lesion: papillary polyp, dosed 53 weeks, study length 59 weeks); 743 mg/kg/day (hamster, strain Syrian Golden, both sexes, by gavage, site: liver, lesion: cholangioma, dosed 53 weeks, study length 59 weeks); 2.86 mg/kg/day (hamster, strain Syrian Golden, both sexes, by gavage, site: nasal cavity, posterior region, lesion: adenocarcinoma, dosed 53 weeks, study length 59 weeks); 25.3 mg/kg/day (hamster, strain Syrian Golden, both sexes, by gavage, site: pharynx, lesion: papilloma, dosed 53 weeks, study length 59 weeks); 2.84 mg/kg/day (hamster, strain Syrian Golden, both sexes, by gavage, site: trachea, lesion: papillary polyp, dosed 53 weeks, study length 59 weeks). For the same compound, the TD50 runs as follows: (rat, strain BD IX, females, in drinking water, site: nasal and paranasal cavity, lesion: adenocarcinoma, dosed 104 weeks, study length 104 weeks) 33.6 mg/kg/day; (rat, strain BD IX, females, in drinking water, site: nasal and paranasal cavity, lesion: several types, types named in the paper, dosed 104 weeks, study length 104 weeks) 32.1 mg/kg/day; (rat, strain BD IX, males, in drinking water, site: nasal and paranasal cavity, lesion: adenocarcinoma, dosed 104 weeks, study length 104 weeks) 46.9 mg/kg/day; (rat, strain BD IX, males, in drinking water, site: nasal and paranasal cavity, lesion: several types, types named in the paper, dosed 104 weeks, study length 104 weeks) 36 mg/kg/day.
Turning to `O=S(=O)(O)c1c(N=Nc2c(O)ccc3ccccc23)ccc2ccccc12`, the carcinogen call by setting is: (rat, strain Osborne-Mendel, females, in feed, site: liver, lesion: adenoma, dosed 105 weeks, study length 105 weeks) “negative (inactive)”; (rat, strain Osborne-Mendel, males, in feed, site: liver, lesion: hepatocellular adenoma, dosed 105 weeks, study length 105 weeks) “negative (inactive)”. Further, the TD50 (rat, strain Osborne-Mendel, females, in feed, site: pituitary gland, lesion: adenoma, dosed 105 weeks, study length 105 weeks) is 3560 mg/kg/day (inactive).

As a reminder, the TD50 is the 50% point of the dose-response relation for the toxic effect studied.
